The test system of test [1] is primary myeloma explants. Briefly: Primary myeloma explant viability. Format: cell-based. The following applies: for sensitivity of primary myeloma cells: 3 days in culture. As to the method:
(§1) Figure 6 Susceptibilities of multiple myeloma cell lines and primary explants to SBI compounds A. Cell lines. The indicated human myeloma cell lines were treated with the indicated compounds for 3 days at which point the total viable cell count was determined using the Cell Titer Glo assay method. Shown are the IC50 values that were calculated from standard 10-point dose-response curves (Supplementary Figure 3). B. Primary myeloma explants. Myeloma cells were purified from bone marrow aspirates and maintained in culture for 3 days in the presence of varying concentrations of the indicated compounds [86] IC50 values were calculated from dose-response curves (Supplementary Figure 4).
(§2) Cell lines were propagated in RPMI medium or Dulbecco's modified Eagle's minimal essential medium (D-MEM), containing 10% fetal bovine serum, 100 units/mL penicillin G and 100 μg/mL streptomycin. Proliferation and viability assays, cells were performed in 96 well plates in the presence of serial dilutions of compounds. Relative cell numbers and viability were determined 2-4 days later using MTT or CellTiter Glo (Promega, Inc. Madison, WI) assays as previously described.
Primary myeloma samples were obtained from the Norwegian Myeloma Biobank after obtaining approval from the Regional Ethics Committee.

The subject of test [2] is N-Myc protein in SK-N-BE(2) cells. Briefly: N-Myc protein immunoblot in neuroblastoma cells. The test is classed as cell-based, human. The following applies: within 24 hr. As to the method: As positive and negative controls, respectively, parallel cultures were exposed to 60 μM 10058-F4 (+) or to DMSO vehicle only. B. SK-N-BE(2) cells treated as described in A were fixed and stained with Oil Red O to delineate lipid droplets. C. SK-N-BE(2) cells were exposed to the indicated amounts of Myc inhibitors for 5 days either in the concurrent absence or presence of nerve growth factor (NGF: 50 ng/ml). Typical fields of unfixed cells were then photographed. Note the presence of longer and more numerous neurite outgrowths in cells exposed to Myc inhibitors (arrows).
Immunoblotting was performed as previously described. Antibodies included a mouse mAb against human Myc (1:500 dilution: Clone 9E10, Santa Cruz Biotechnology, Inc. Santa Cruz, CA), a mouse mAb against β−actin (1:10,000 dilution: cat. no.3700S Cell Signaling Technology, Inc. Beverly, MA), a mouse mAb against AMPK (1:1000 dilution: catalog no. 2532, Cell Signaling Technology) and a rabbit polyclonal antibody against AMPK phospho-Thr172 (1:1000 dilution, catalog no.2535, Cell Signaling Technologies).

Test [3] has as its system human myeloma cell lines. Briefly: Myeloma cell line viability, Cell Titer Glo. Format: cell-based. The following applies: for differential susceptibilities among myeloma cell lines: discounting U266. As to the method:
as §1, §2

Test [4] has as its target Myc-Max(S) heterodimers (Homo sapiens, UniProt P01106+P61244). Briefly: EMSA, DNA binding by Myc-Max(S) heterodimers. The test is classed as biochemical. Conditions: for fold more potent than celastrol: EMSA Myc-Max(S). From the text:
B. Formation of a typical Michael adduct with cysteine as an example (depicted in blue) is shown. […] C. […] Recombinant Myc bHLH-ZIP domain (residues 353-437), and full-length Max(S) and Max(L) were used for EMSAs along with a HEX-tagged, double-stranded oligonucleotide containing a Myc binding E-box element (CACGTG). Max(S) is the 151 residue isoform that homodimerizes efficiently but only binds DNA as a heterodimer in association with Myc. The 160 residue isoform, termed Max(L), that does bind DNA as a homodimer and that closely mimics the Myc-Max(S) association was used as a control. D. Graphical representation of EMSA results from triplicate assays performed as described in C.
(§3) The 83 residue His6-tagged Myc bHLH-ZIP domain (amino acids […]), and full-length His6-tagged Max(S) and His6-tagged Max(L) were expressed and purified as previously described. 20 nmol each of Myc and Max(S) or 40 ng of Max(L) were used for EMSA assays that included 30 nmol of a (HEX)-tagged double-stranded E-box-containing oligonucleotide (IDT, Coralville, IA, USA). Importantly, the Myc protein excluded the two C-terminal amino acids (Cys438 and Ala439) from the final sequence, thus eliminating a potential reaction site for quinone methide-containing triterpenoids.

In test [5] the target is T1, Max(L) homodimers (Homo sapiens, UniProt P61244).
T1 construct: full-length His6-tagged Max(S) and His6-tagged Max(L) were expressed and purified as previously described; His6; made in house
Briefly: EMSA, DNA binding by Max(L) homodimers. The following applies: recombinant Max(L). Format: biochemical.
Source text: B. Formation of a typical Michael adduct with cysteine as an example (depicted in blue) is shown. Note that nucleophilic attack by free sulfhydryl-containing molecules occurs at position 6 of the B ring. C. […] Recombinant Myc bHLH-ZIP domain (residues 353-437), and full-length Max(S) and Max(L) were used for EMSAs along with a HEX-tagged, double-stranded oligonucleotide containing a Myc binding E-box element (CACGTG). Max(S) is the 151 residue isoform that homodimerizes efficiently but only binds DNA as a heterodimer in association with Myc. The 160 residue isoform, termed Max(L), that does bind DNA as a homodimer and that closely mimics the Myc-Max(S) association was used as a control. D. Graphical representation of EMSA results from triplicate assays performed as described in C.
as §3

Test [6] relates to HL60 promyelocytic leukemia cell line. Briefly: Proliferation inhibition of HL60 cells. Format: cell-based. The following applies: Homo sapiens, HL-60. As to the method: as §2
For test [7], the system named is Daudi Burkitt lymphoma cell line. Briefly: Proliferation inhibition of Daudi cells. The test is classed as cell-based. The following applies: Homo sapiens. As to the method: as §2
Test [8] deals with NCI-60 cell line collection. Briefly: NCI-60 cell line screen. The test is classed as cell-based.
Where [9] appears, read: 3 days, Cell Titer Glo, read-out: mean IC50 over myeloma cell lines.
Where [10] appears, read: EMSA, recombinant Myc bHLH-ZIP and Max(S), read-out: IC50, DNA binding by Myc-Max(S) heterodimers.

These results are taken from article PMC4741700 (Oncotarget, 2015).

Where two headings read alike, the source gives them in different places.

Chain of Myc-Max(S) heterodimers (P01106 368-452 limits assumed): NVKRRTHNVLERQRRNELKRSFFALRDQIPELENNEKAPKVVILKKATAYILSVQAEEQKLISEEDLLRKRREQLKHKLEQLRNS
Chain of Myc-Max(S) heterodimers (P61244 1-151 isoform P61244-2): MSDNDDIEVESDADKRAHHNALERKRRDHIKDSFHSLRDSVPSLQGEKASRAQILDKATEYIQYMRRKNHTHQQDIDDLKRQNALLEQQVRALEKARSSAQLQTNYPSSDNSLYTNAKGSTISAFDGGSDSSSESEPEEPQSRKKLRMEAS
T1 sequence (P61244 whole entry): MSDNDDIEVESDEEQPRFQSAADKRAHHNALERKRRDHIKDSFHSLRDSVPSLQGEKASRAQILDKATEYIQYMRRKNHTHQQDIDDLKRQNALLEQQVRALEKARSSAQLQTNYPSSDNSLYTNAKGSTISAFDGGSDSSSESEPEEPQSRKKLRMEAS

With `CCc1ccc(C=C2SC(=S)NC2=O)cc1` [10058-F4, [Z,E]-5-[4-ethylbenzylidine]-2-thioxothiazolidin-4-one], the “sensitivity of primary myeloma cells” value in test [1] is recorded as “the majority were sensitive”. Besides, in test [2], the N-Myc protein level result was “declined”. Further, the IC50 in test [3] (setting [9]) stood at 21.8 µM. For the same molecule, the “differential susceptibilities among myeloma cell lines” value in test [3] is 3-4 fold.

For `CC1=C(O)C(=O)C=C2C1=CC=C1[C@@]2(C)CC[C@@]2(C)[C@@H]3C[C@](C)(C(=O)O)CC[C@]3(C)CC[C@]12C` [Celastrol, celastrol, reference compound], the N-Myc protein level entry in test [2] is recorded as “declined”. Moreover, the IC50 in test [4] was 67 ± 2 µM; in test [5], above 140 µM; in test [6] it was 0.46 ± 0.06 µM; in test [7], 0.09 ± 0.02 µM.

`Cc1sc2c(c1C)C(c1ccc(Cl)cc1)=N[C@@H](CC(=O)OC(C)(C)C)c1nnc(C)n1-2` [JQ1]: in test [1], the “sensitivity of primary myeloma cells” value was “resistant”. Further, the “effect against primary myelomas” value in test [1] (even at concentrations exceeding 10-20 μM) is listed as “virtually without effect”. Moreover, the IC50 is 0.25 µM in test [3] (setting [9]) and 0.25 µM in test [3] (3 days, U266 excluded, read-out: mean IC50 over myeloma cell lines disregarding U266). Besides, in test [3] (U266 excluded), the “fold lower mean IC50 than SBI-0061739” value was below 2 fold. In test [3], the “differential susceptibilities among myeloma cell lines” value is reported as 20 fold. Also, the “factor by which JQ1 is more effective than 10058-F4” value in test [3] (mean IC50s) was around 90.

Regarding `C=C(C)C1CCC2(C(=O)O)CCC3(C)C(CCC4C5(C)Cc6nccnc6C(C)(C)C5CCC43C)C12` (stereo not shown) [SBI-0061739], the IC50 in test [6] was 0.82 ± 0.23 µM; in test [7], 3.19 ± 2.28 µM; in test [3] (Homo sapiens, U-266, 72 h, 3 days, U266 excluded, read-out: mean IC50 over myeloma cell lines disregarding U266), 0.42 µM; in test [3] (Homo sapiens, 8 of 9 cell lines, read-out: IC50 in 8 of 9 myeloma cell lines), below 1 µM; in test [8] (7 of 8 cell lines, read-out: IC50 in renal cancer lines) it was above 2 µM; in test [8] (17 cell lines (28%), read-out: IC50 in highly sensitive NCI-60 cell lines), below 2 µM. Further, the half-maximal inhibitory concentration (IC50) in test [8] (all 6 lines, read-out: IC50 in ovarian cancer lines) was above 2 µM.

In the case of `C=C(C)C1CCC2(C(=O)O)CCC3(C)C(CCC4C5(C)Cc6nc7ccccc7nc6C(C)(C)C5CCC43C)C12` (stereo not shown) [SBI-0069272], in test [4], the “fold more potent than celastrol” value was 4-6 fold. In addition, the results for the IC50 in test [4] (setting [10]), in test [6] and in test [7] were 10 to 15 µM, 10.8 ± 2.18 µM and 14.3 ± 3.2 µM, respectively.

Consider `CC1(C)CCC2(C(=O)O)CCC3(C)C(=CCC4C5(C)CCC(=O)C(C)(C)C5CCC43C)C2C1` (stereo not shown) [SBI-0640599], for which the “fold more potent than celastrol” value in test [4] was 4-6 fold. The values for the IC50 in test [4] (setting [10]), in test [6] and in test [7] were 10 to 15 µM, 12 ± 1.28 µM and 14.2 ± 3.7 µM, respectively.

On to `C=C(C)C1CCC2(C(=O)O)CCC3(C)C(CCC4C5(C)CCC(=O)C(C)(C)C5CCC43C)C12` (stereo not shown) [SBI-0640601], for which the IC50 in test [4] (setting [10]) is 10 to 15 µM; in test [6], 13.2 ± 1.74 µM; in test [7] it was 6.36 ± 1.25 µM.
